Test results reported in ChEMBL document CHEMBL1201862, “PubChem BioAssay data set” (2004).
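All cell lines were grown in 96-well plates and treated with compound for 48 hours. Abbreviation: GI50, concentration required for 50% inhibition of growth.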 Active and inactive are the calls of the source. No stated cut-off is given here; in the data, active = GI50 up to about 1.1 µM and inactive = higher.

Key:
Assay in all cases: DTP human tumour cell line panel, 48 h
[1] = system: SR
[2] = system: MOLT-4
[3] = system: Hs-578T
[4] = system: PC-3
[5] = system: OVCAR-3
[6] = system: SF-295
[7] = system: HL-60
[8] = system: NCI-H460
[9] = system: SN12C
[10] = system: HT-29
[11] = system: HOP-62
[12] = system: KM12
[13] = system: OVCAR-5
[14] = system: T47D
[15] = system: OVCAR-8
[16] = system: NCI/ADR-RES
[17] = system: UO-31
[18] = system: A549
[19] = system: HCT-116
[20] = system: HCT-15
[21] = system: MDA-MB-435
[22] = system: SK-MEL-5
[23] = system: RPMI-8226
[24] = system: CAKI-1
[25] = system: U-251
[26] = system: M14
[27] = system: NCI-H226
[28] = system: SK-MEL-2
[29] = system: DU-145
[30] = system: ACHN
[31] = system: SW-620
[32] = system: LOX IMVI
[33] = system: UACC-62
[34] = system: A498
[35] = system: SF-268
[36] = system: IGROV-1
[37] = system: 786-0
[38] = system: SF-539
[39] = system: K562
[40] = system: SK-OV-3
[41] = system: MDA-MB-231
[42] = system: UACC-257
[43] = system: MDA-N
[44] = system: CCRF-CEM
[45] = system: SNB-19
[46] = system: NCI-H23
[47] = system: MCF7
[48] = system: NCI-H522
[49] = system: COLO 205
[50] = system: RXF 393
[51] = system: TK-10
[52] = system: SNB-75
[53] = system: SK-MEL-28
[54] = system: Malme-3M
[55] = system: HCC 2998
[56] = system: EKVX
[57] = system: OVCAR-4

## COc1ccc(C2CC(c3ccccc3)=Nc3c(-c4ccccc4)nnn32)cc1 (centres undefined)
[1]
  GI50: 23.3 µM (inactive)
[2]
  GI50: > 100 µM (inactive)
[3]
  GI50: 51.2 µM (inactive)
[4]
  GI50: 72.6 µM (inactive)
[5]
  GI50: 54.7 µM (inactive)
[6]
  GI50: > 100 µM (inactive)
[7]
  GI50: > 100 µM (inactive)
[8]
  GI50: > 100 µM (inactive)
[9]
  GI50: > 100 µM (inactive)
[10]
  GI50: > 100 µM (inactive)
[11]
  GI50: 96.2 µM (inactive)
[12]
  GI50: 46.9 µM (inactive)
[13]
  GI50: > 100 µM (inactive)
[14]
  GI50: 10 µM (inactive)
[15]
  GI50: 37.3 µM (inactive)
[16]
  GI50: > 100 µM (inactive)
[17]
  GI50: > 100 µM (inactive)
[18]
  GI50: 39.2 µM (inactive)
[19]
  GI50: 35.5 µM (inactive)
[20]
  GI50: 9.06 µM
[21]
  GI50: 77.8 µM (inactive)
[22]
  GI50: 9.27 µM (inactive)
[23]
  GI50: 12.8 µM (inactive)
[24]
  GI50: 98.4 µM (inactive)
[25]
  GI50: 9.84 µM (inactive)
[26]
  GI50: > 100 µM (inactive)
[27]
  GI50: > 100 µM (inactive)
[28]
  GI50: 44.4 µM (inactive)
[29]
  GI50: > 100 µM (inactive)
[30]
  GI50: 17 µM (inactive)
[31]
  GI50: > 100 µM (inactive)
[32]
  GI50: > 100 µM (inactive)
[33]
  GI50: 55.7 µM (inactive)
[34]
  GI50: > 100 µM (inactive)
[35]
  GI50: > 100 µM (inactive)
[36]
  GI50: > 100 µM (inactive)
[37]
  GI50: > 100 µM (inactive)
[38]
  GI50: 85.3 µM (inactive)
[39]
  GI50: > 100 µM (inactive)
[40]
  GI50: > 100 µM (inactive)
[41]
  GI50: 85.1 µM (inactive)
[42]
  GI50: > 100 µM (inactive)
[43]
  GI50: > 100 µM (inactive)
[44]
  GI50: > 100 µM (inactive)
[45]
  GI50: > 100 µM (inactive)
[46]
  GI50: > 100 µM (inactive)
[47]
  GI50: > 100 µM (inactive)
[48]
  GI50: 8.22 µM (inactive)
[49]
  GI50: > 100 µM (inactive)

## O=C(NC(C(F)(F)F)(C(F)(F)F)P(=O)(c1ccccc1)c1ccccc1)C(C(F)(F)F)C(F)(F)F
[2]
  GI50: 26.7 µM (inactive)
[3]
  GI50: 54 µM (inactive)
[4]
  GI50: 27.8 µM (inactive)
[5]
  GI50: 25.8 µM (inactive)
[6]
  GI50: 48.4 µM (inactive)
[7]
  GI50: 26.5 µM (inactive)
[8]
  GI50: 42.3 µM (inactive)
[9]
  GI50: 27.9 µM (inactive)
[10]
  GI50: 14.5 µM (inactive)
[11]
  GI50: > 100 µM (inactive)
[12]
  GI50: 26.2 µM (inactive)
[13]
  GI50: 34.2 µM (inactive)
[14]
  GI50: > 100 µM (inactive)
[15]
  GI50: 29.3 µM (inactive)
[16]
  GI50: 21.6 µM (inactive)
[18]
  GI50: 34.6 µM (inactive)
[19]
  GI50: 18.5 µM (inactive)
[20]
  GI50: 30 µM
[21]
  GI50: 18.7 µM (inactive)
[22]
  GI50: 17.8 µM (inactive)
[23]
  GI50: 33.6 µM (inactive)
[50]
  GI50: 20.2 µM (inactive)
[24]
  GI50: 0.0131 µM (active)
[51]
  GI50: 37.2 µM (inactive)
[25]
  GI50: 36.6 µM (inactive)
[26]
  GI50: 17.1 µM (inactive)
[27]
  GI50: 68.9 µM (inactive)
[28]
  GI50: 40.6 µM (inactive)
[29]
  GI50: > 100 µM (inactive)
[52]
  GI50: 20.8 µM (inactive)
[30]
  GI50: 16.7 µM (inactive)
[31]
  GI50: 40.6 µM (inactive)
[32]
  GI50: 23.2 µM (inactive)
[33]
  GI50: 56 µM (inactive)
[34]
  GI50: > 100 µM (inactive)
[53]
  GI50: 32.9 µM (inactive)
[54]
  GI50: 14.2 µM (inactive)
[35]
  GI50: 28.9 µM (inactive)
[36]
  GI50: 25.7 µM (inactive)
[37]
  GI50: 18.9 µM (inactive)
[38]
  GI50: 22.8 µM (inactive)
[39]
  GI50: 33.6 µM (inactive)
[40]
  GI50: > 100 µM (inactive)
[41]
  GI50: 24.2 µM (inactive)
[55]
  GI50: > 100 µM (inactive)
[42]
  GI50: 29.4 µM (inactive)
[43]
  GI50: 20.4 µM (inactive)
[44]
  GI50: 41.8 µM (inactive)
[45]
  GI50: 71.3 µM (inactive)
[46]
  GI50: 21.7 µM (inactive)
[47]
  GI50: 26.2 µM (inactive)
[48]
  GI50: 25.9 µM (inactive)
[56]
  GI50: > 100 µM (inactive)
[49]
  GI50: 20.2 µM (inactive)
[57]
  GI50: 37.7 µM (inactive)
